Reference: patent US7902361B2, “Pyrimidin-4-yl-3, 4-thione compounds and their use in therapy” (Cyclacel Limited, priority 2003, dated 2011)
Marks after values point to notes of the source that are not given here.

Tests used:
[1] = target: T1, DYRK1A (Homo sapiens, UniProt Q13627); assay: DYRK1A in vitro kinase assay; format: biochemical; conditions: recombinant human DYRK1A, 100 μM ATP
T1 construct: purchased Upstate
Excerpt: Dual specificity tyrosine phosphorylation regulated kinase 1A (DYRK1A) has been proposed, amongst other functions, to play a role in the regulation of glycogen metabolism in a way similar to GSK3. Some of the example compounds of the present invention were screened against recombinant human DYRK1A in vitro and the determined IC50 values are shown in Table 9. According to our current knowledge inhibition of DYRK1A will have additional positive effect on stimulation of glycogen synthase.
A 10-point titration was set up to determine the IC50 values of selected example compounds against DYRK1A. Assays were performed using 96-well microtiter plates and a final volume of 25 μL/well. Each assay contained 2.3 milliunits of DYRK1A (Upstate), 50 μM Woodtide peptide ([…], Upstate), 20 mM Tris HCl pH 8.0, 10 mM DTT, 5 mM EGTA, 1 mM NaVO3, 31 mM β-glycerophosphate, 15 mM MgCl2 supplemented with 100 μM ATP and 0.5 μCi of [γ-^32P] ATP plus or minus inhibitor in 2% DMSO. Assays were carried out for 60 minutes at 30° C. before stopping the reaction by the addition of an equal volume of 75 mM aqueous phosphoric acid. Samples were then spotted onto a p81 filterplate (Whatman) and a vacuum applied. Wells were washed 3 times with 200 μL of dilute aqueous phosphoric acid before the addition of 50 μL Microscint 40 per well. Incorporation of radioactivity was determined on a Topcount microplate scintillation counter (Packard).

[2] = target: T2, GSK3β (Homo sapiens, UniProt P49841); assay: GSK3β in vitro kinase assay; format: biochemical; conditions: recombinant human GSK3β, 100 μM ATP
T2 construct: purchased New England Biolabs
Method in brief: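 Radiometric filter-binding assay with GSK3β (1.5 units), 200 μM CREB phosphopeptide, 100 μM ATP plus [γ-32P]ATP, in 20 mM Tris HCl pH7.5, 5 mM DTT, 15 mM MgCl2, 2% DMSO; 30 min at 30° C, stopped with phosphoric acid. 32P incorporation counted by scintillation; IC50 from 10-point titration.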

[3] = target: CDK9/cyclin T1 (Homo sapiens, UniProt P50750); assay: Kinase assay CDK9/cyclin T1; format: biochemical; conditions: Ki calculated (Cheng-Prusoff) from experimentally determined IC50 and Km,ATP; read-out: Kinase Inhibition Ki CDK9 - cyclin T1
Method in brief: (§1)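 Radiometric filter assays used recombinant kinases or complexes (2-4 μg) with appropriate polypeptide substrates in pH 7.4 β-glycerophosphate/MOPS buffer. Reactions were started with 15 mM MgCl2 and 100 μM ATP containing [γ-32P]-ATP and run at 30° C. Phosphate incorporated into substrate was counted by scintillation after washing.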

[4] = target: CDK7/cyclin H (Homo sapiens, UniProt P50613); assay: Kinase assay CDK7/cyclin H; format: biochemical; conditions: Ki calculated (Cheng-Prusoff) from experimentally determined IC50 and Km,ATP; read-out: Kinase Inhibition Ki CDK7 - cyclin H
Method in brief: as §1

[5] = Oral glucose tolerance in male ZDF fa/fa rats; format: in vivo, rat
Description: (§2) The ability of example compounds of the present invention to improve glucose metabolism was tested in 12-13 week old male ZDF fa/fa rats. The test animals (10-15 mmol/L fasting glucose level) were dosed twice at 30 mg/kg and the glucose challenge was given at time 0. […] Most of these blood levels were below the EC50 values determined in cellular assays.
(§3) 12-13 weeks old male ZDF fa/fa rats were used to study the effect of example compounds on oral glucose tolerance. […] Body weight was recorded three times per week. Test compounds were dissolve in a formulation of 10% DMSO, 5% Tween, 5% Span 20, 30% PEG 400 and 50% water (v/v) to provide final solutions at 5 mg/mL concentration. Each experimental group contained 7 animals. After an 16 h overnight fast the test compounds were administered at 30 mg/kg per os twice (at −270 min and −30 min) before the oral glucose tolerance test was commenced (2 g glucose/kg per os as a 40% solution introduced via feeding tube). A control group was dosed in a similar manner with the vehicle only. Blood sampling for blood glucose measurement (20 μL blood) was performed at −270, 0, 15, 30, 60, 90, 120 and 180 min. Mixed venous blood was collected from the tail vein into 20-μL glass capillaries, which were placed in a standard tube filled with 1 mL solution for hemolysis. Glucose levels were measured using the glucose oxidase procedure (Super G Glukosemessgeraet; Dr Mueller Geraetebau, Freital, Germany). In addition, 50 μL blood samples were taken at 30 and 60 min after the glucose dose, placed in heparinized tubes, which were then frozen immediately in liquid nitrogen. The bioanalytical method used employed isocratic elution liquid chromatography—tandem mass spectrometry in electrospray positive ion multiple reaction monitoring mode.

[6] = Blood levels of test compounds in ZDF fa/fa rats; format: in vivo, rat; conditions: 30 mg/kg per os twice
Description: as §2, §3

[7] = target: CDK2/cyclin E (Homo sapiens, UniProt P24941); assay: Kinase assay CDK2/cyclin E; format: biochemical; conditions: Ki calculated (Cheng-Prusoff) from experimentally determined IC50 and Km,ATP; read-out: Kinase Inhibition Ki CDK2 - cyclin E
Method in brief: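 Radiometric assays measured transfer of radioactive phosphate from ATP onto polypeptide substrates, using 2-4 μg recombinant active enzyme in buffer typically containing 25 mM β-glycerophosphate, 20 mM MOPS, 5 mM EGTA, 1 mM DTT and 1 mM Na3VO3 at pH 7.4. Reactions were stopped on ice, filtered on P81 or GF/C plates and washed with orthophosphoric acid. Incorporated radioactivity was scintillation-counted.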

[8] = target: T3, GSK3α (Homo sapiens, UniProt P49840); assay: GSK3α in vitro kinase assay; format: biochemical; conditions: recombinant human GSK3α, 100 μM ATP
T3 construct: purchased Upstate
Description: Both isoforms of GSK3 (α and β) are involved in the regulation of glycogen synthase activity—key enzyme in the glycogen metabolism. The inhibitory potency of example compounds was determined using in vitro kinase assays with recombinant human GSK3-α and -β; the IC50 values determined are presented in Table 9.
A 10-point titration was set up to determine the IC50 values of selected example compounds against GSK3β. Assays were performed using 96-well microtiter plates with a final volume of 25 μL per well. Each assay contained 1.5 units of GSK3β(New England Biolabs), 200 μM CREB phosphopeptide ([…]pSYR, Alta Biosciences), 20 mM Tris HCl pH7.5, 5 mM DTT, 15 mM MgCl2 supplemented with 100 μM ATP and 0.5 μCi of [γ-^32P] ATP plus or minus inhibitor in 2% DMSO. Assays were carried out for 30 minutes at 30° C. before stopping the reaction by the addition of an equal volume of 75 mM aqueous phosphoric acid. Samples were then spotted onto a p81 filterplate (Whatman) and a vacuum was applied. Wells were washed 3 times with 200 μL of dilute aqueous phosphoric acid before the addition of 50 μL Microscint 40 per well. Incorporation of radioactivity was determined on a Topcount microplate scintillation counter (Packard).
GSK3α (Upstate) was assayed exactly as described above except that 1 ng of enzyme was added per assay point.

[9] = system: PEPCK gene expression; assay: PEPCK gene expression assay - qPCR in HEPG2 cells; format: cell-based; conditions: HEPG2; 100 nM + Dex/cAMP
Description: PEPCK gene expression was studied in HEPG2 (hepatocarcinoma) cells, seeded in 6-well plate at […] per well. The cells were serum-starved for 20 hours before treatment with dexamethasone/cAMP (stimulator of PEPCK gene expression) in the presence or absence of insulin or GSK3 inhibitor example compounds. After 3 hours treatment the cells were harvested, lysed and RNA extracted using mini RNeasy spin columns (Quiagen). The primer set COD2063/COD2064 (350 bp) was used for the PEPCK gene. The one step RT-PCR was carried out using the Lightcycler-RNA Master SYBR Green 1 Kit. The qPCR analysis calculates the number of the PCR cycles required for the PCR product amplification to reach logarithmic phase. QPCR for a housekeeping gene—28S—was used for normalisation. PEPCK is a key enzyme in gluconeogenesis in the liver and it is known to be negatively regulated by insulin via inhibition of GSK3. The effect of example compounds on PEPCK gene expression was studied in HEPG2 cells treated with dexamethasone/cAMP (a positive regulator PEPCK gene expression) in the presence or absence of insulin or GSK3 inhibitors. Example compound inhibitors of GSK3 were efficient in the abolishment of dexamethasone/cAMP induced stimulation of PEPCK gene expression in HEPG2 cells.

[10] = ZDF fa/fa rats, oral glucose tolerance, 30 mg/kg per os twice (−270 and −30 min)
[11] = male ZDF fa/fa rats, 30 mg/kg per os twice, oral glucose tolerance test

T2 sequence (P49841 whole entry): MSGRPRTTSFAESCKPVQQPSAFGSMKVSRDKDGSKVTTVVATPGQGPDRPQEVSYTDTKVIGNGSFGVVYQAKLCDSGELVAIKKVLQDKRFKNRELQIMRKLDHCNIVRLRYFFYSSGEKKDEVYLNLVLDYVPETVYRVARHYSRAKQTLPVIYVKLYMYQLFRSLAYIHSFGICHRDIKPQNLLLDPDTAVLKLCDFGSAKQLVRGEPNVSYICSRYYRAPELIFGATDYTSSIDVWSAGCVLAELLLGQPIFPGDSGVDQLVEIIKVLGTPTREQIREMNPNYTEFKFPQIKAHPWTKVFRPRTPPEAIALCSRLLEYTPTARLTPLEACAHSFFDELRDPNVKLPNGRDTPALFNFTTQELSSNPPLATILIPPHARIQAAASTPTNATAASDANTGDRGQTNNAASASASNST
Sequence of CDK7/cyclin H (P50613 whole entry, species assumed): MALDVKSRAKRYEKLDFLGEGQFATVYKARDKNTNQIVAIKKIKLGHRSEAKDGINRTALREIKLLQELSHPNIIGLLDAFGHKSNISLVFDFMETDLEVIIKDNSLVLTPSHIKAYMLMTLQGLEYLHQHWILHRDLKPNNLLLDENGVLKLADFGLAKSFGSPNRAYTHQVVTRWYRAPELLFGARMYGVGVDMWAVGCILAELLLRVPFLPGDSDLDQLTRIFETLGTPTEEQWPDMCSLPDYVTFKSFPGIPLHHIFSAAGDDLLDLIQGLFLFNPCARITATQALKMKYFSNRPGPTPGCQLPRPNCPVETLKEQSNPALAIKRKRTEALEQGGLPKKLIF
Sequence of CDK7/cyclin H (P51946 whole entry partner, species assumed): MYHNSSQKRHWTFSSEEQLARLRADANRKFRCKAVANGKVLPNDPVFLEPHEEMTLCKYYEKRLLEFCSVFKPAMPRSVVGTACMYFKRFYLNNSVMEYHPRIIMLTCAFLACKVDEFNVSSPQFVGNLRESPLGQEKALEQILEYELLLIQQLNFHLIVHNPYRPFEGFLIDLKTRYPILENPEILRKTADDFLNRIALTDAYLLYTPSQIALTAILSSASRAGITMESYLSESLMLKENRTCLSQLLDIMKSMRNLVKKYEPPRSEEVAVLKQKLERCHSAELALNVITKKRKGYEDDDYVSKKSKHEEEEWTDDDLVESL
T3 sequence (P49840 whole entry): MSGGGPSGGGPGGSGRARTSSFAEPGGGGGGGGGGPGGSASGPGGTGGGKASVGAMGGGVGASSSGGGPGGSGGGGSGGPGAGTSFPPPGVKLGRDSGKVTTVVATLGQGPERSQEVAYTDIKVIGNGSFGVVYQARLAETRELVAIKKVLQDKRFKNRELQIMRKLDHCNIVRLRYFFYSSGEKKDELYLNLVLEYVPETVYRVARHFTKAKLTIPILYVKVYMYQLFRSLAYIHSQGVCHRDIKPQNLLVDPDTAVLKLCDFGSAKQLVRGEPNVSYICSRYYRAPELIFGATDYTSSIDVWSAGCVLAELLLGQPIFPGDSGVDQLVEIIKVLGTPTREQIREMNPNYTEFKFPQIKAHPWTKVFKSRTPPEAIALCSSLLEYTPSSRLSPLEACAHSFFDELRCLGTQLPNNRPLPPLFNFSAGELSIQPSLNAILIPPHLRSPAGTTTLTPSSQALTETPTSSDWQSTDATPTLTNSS
Sequence of CDK9/cyclin T1 (P50750 whole entry, species assumed): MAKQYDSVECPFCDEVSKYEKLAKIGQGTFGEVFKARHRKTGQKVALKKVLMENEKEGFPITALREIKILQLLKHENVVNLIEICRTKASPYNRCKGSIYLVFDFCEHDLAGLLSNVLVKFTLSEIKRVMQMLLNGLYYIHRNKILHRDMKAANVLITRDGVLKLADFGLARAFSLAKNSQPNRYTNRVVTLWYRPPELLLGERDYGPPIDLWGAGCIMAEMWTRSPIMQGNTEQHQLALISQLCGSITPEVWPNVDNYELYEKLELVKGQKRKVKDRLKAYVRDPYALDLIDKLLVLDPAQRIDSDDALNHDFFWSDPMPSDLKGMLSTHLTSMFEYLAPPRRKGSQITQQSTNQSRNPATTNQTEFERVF
Sequence of CDK9/cyclin T1 (O60563 whole entry partner, species assumed): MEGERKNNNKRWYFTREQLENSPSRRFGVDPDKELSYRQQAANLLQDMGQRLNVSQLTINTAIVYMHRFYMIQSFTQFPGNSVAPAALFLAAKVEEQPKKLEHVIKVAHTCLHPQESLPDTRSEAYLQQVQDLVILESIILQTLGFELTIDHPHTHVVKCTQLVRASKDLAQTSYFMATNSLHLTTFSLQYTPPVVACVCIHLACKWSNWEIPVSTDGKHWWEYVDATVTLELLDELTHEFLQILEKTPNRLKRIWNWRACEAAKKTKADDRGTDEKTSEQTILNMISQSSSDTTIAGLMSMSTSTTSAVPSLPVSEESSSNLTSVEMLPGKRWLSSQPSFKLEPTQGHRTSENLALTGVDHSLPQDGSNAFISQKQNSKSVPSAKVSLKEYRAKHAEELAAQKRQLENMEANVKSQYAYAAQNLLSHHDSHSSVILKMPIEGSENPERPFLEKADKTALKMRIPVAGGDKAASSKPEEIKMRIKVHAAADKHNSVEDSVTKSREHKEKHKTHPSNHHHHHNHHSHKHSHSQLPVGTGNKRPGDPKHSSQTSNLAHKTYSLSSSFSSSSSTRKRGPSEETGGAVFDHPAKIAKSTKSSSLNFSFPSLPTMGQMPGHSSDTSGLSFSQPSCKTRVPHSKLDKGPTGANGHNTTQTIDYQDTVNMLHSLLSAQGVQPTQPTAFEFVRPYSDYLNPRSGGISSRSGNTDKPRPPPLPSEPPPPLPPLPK

IC50 [1]	IC50 [2]	Ki [3]	Ki [4]	oral bioavailability (blood levels at 30 and 60 min after the glucose load) ([6]; male ZDF fa/fa rats)	concentration at 30 min ([6]; male, rat, whole blood, oral, ZDF fa/fa rats, time 30 min)	concentration at 60 min ([6]; male, rat, whole blood, oral, ZDF fa/fa rats, time 60 min)	Ki [7]	IC50 [8]	Compound	% Glucose Decrease AUC (−270–180 min) [5, 10]	% Glucose decrease-AUC (0–180 min) [5, 10]	decreased blood glucose levels [5, 11]	glucose AUC [5, 11]	PEPCK gene expression, % of maximum stimulation [9]
0.356 µM	0.015 µM	0.021 µM	2.3 µM	some oral bioavailability	157 ng/mL	162 ng/mL	0.2 µM	0.032 µM	Cc1c(-c2ccnc(Nc3ccc(Cl)c(C(F)(F)F)c3)n2)sc(=O)n1C [Compound 66, 5-[2-(4-Chloro-3-trifluoromethyl-phenylamino)-pyrimidin-4-yl]-3,4-dimethyl-3H-thiazol-2-one]	20%	17* %	statistically significant	moderate decrease	
									Insulin					44.09 ± 11.07%
